For 18 molecules, IC50 results are on record in patent publication US9216999B2, “Substituted pyrrolo[2,3-h][1,6]naphthyridines and compositions thereof as JAK inhibitors” (priority 2011, dated 2015).

What all share (format): biochemical
One test deals with JAK1 (Homo sapiens (Human), UniProt P23458). Nature of the test: Enzyme assay (Assay Example^a 1), JAK1. The settings on record: ATP 100 μM.
The target in a further test is JAK2 (Homo sapiens (Human), UniProt O60674). Nature of the test: Enzyme assay (Assay Example^a 1), JAK2. The settings on record: ATP 100 μM.
The target of another test is JAK3 (Homo sapiens (Human), UniProt P52333). Nature of the test: Enzyme assay (Assay Example^a 1), JAK3.
JAK3, sequence (P52333 whole entry): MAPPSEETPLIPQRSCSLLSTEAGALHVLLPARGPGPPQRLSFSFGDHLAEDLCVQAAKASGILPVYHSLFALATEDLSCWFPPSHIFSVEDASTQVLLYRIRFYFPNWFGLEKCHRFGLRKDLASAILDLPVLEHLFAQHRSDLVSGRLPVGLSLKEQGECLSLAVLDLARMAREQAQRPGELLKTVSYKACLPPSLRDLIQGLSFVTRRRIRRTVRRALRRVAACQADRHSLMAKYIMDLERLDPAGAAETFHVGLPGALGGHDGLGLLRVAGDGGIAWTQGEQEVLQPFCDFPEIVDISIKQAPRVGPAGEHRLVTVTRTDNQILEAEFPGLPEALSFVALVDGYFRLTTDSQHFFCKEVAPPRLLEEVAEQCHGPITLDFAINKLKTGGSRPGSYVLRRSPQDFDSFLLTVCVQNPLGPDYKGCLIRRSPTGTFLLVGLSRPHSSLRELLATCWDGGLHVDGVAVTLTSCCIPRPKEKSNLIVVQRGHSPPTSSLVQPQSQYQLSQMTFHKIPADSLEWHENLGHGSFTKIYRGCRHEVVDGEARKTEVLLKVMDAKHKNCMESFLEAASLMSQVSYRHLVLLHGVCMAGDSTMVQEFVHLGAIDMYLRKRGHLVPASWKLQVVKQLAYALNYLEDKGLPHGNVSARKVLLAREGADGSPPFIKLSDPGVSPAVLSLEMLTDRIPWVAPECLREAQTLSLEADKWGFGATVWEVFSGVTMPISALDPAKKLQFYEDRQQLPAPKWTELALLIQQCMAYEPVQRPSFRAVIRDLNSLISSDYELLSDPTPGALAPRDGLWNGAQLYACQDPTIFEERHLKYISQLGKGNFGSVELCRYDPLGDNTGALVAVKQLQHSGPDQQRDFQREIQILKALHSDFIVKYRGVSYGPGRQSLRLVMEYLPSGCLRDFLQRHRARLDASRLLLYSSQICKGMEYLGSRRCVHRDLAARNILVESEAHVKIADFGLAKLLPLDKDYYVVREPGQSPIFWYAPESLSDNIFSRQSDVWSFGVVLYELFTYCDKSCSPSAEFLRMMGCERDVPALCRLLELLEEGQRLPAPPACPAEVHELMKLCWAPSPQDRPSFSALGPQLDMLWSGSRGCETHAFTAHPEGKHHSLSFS
The target of the next test is Tyk2 (Homo sapiens (Human), UniProt P29597). Nature of the test: Enzyme assay (Assay Example^a 1), Tyk2. The settings on record: ATP 100 μM.
Tyk2, sequence (P29597 whole entry): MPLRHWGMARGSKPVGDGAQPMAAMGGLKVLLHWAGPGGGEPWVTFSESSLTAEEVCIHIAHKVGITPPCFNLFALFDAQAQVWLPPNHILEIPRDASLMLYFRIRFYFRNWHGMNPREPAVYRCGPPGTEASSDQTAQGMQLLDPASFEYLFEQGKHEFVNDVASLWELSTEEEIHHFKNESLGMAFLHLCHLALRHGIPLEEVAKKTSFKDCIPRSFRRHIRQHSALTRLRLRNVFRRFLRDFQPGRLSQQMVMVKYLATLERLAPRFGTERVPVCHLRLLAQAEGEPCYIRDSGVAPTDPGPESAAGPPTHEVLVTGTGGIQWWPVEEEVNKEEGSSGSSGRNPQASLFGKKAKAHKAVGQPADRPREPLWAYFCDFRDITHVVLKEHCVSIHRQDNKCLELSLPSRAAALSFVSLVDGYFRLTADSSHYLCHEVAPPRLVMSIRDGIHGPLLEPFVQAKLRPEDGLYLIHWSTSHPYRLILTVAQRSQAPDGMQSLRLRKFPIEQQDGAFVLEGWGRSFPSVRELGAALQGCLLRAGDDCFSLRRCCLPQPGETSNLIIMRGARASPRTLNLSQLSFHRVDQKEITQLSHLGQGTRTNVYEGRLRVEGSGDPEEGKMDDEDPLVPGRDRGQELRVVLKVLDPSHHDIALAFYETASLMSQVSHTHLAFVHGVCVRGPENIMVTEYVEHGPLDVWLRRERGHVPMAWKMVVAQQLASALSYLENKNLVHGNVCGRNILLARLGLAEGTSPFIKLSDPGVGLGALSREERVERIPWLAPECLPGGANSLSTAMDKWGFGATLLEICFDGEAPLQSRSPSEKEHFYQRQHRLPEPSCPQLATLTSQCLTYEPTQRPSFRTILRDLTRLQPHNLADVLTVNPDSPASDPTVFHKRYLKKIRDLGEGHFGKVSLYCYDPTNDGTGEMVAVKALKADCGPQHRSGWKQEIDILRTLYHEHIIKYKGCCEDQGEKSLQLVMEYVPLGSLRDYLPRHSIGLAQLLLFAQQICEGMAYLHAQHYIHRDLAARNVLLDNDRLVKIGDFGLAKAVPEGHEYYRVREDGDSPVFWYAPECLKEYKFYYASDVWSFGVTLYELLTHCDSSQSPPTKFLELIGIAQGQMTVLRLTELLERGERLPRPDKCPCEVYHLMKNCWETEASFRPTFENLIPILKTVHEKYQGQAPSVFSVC

Read-outs that look alike come from different tables or passages of the source.

The IC50 is the point on the concentration scale where inhibition reaches its midpoint. A higher IC50 goes with a need for much substance. As to `CC(C)(C)OC(=O)NCC1CCN(C[C@H]2CC[C@H](c3nnn4cnc5[nH]ccc5c34)CC2)CC1` [compound 336, tert-butyl [(1-{[trans-4-(7H-pyrrolo[3,2-e][1,2,3]triazolo[1,5-c]pyrimidin-1-yl)cyclohexyl]methyl}piperidin-4-yl)methyl]carbamate], the IC50 was 0.025 µM against JAK1, 0.37 µM against JAK2, above 1 µM against JAK3 (ATP 100 μM) and above 1 µM against Tyk2.

For `c1cnc2cc(CN3CCC(c4nnn5cnc6[nH]ccc6c45)CC3)ccc2n1` [compound 218, 1-[1-(quinoxalin-6-ylmethyl)piperidin-4-yl]-7H-pyrrolo[3,2-e][1,2,3]triazolo[1,5-c]pyrimidine], the IC50 is 0.028 µM against JAK1, 0.14 µM on JAK2, above 1 µM on JAK3 (ATP 100 μM) and above 1 µM on Tyk2.

Turning to `COCC1(NC[C@H]2CC[C@H](c3nnn4cnc5[nH]ccc5c34)CC2)CC1` [compound 293, N-{[trans-4-(7H-pyrrolo[3,2-e][1,2,3]triazolo[1,5-c]pyrimidin-1-yl)cyclohexyl]methyl}-1-(methoxymethyl)cyclopropanamine], the IC50 on JAK1 was 0.024 µM; at JAK2, 0.1 µM; at JAK3 (ATP 100 μM), 0.94 µM; against Tyk2, 0.31 µM.

In the case of `O[C@H]1CC[C@H](NC[C@H]2CC[C@H](c3nnn4cnc5[nH]ccc5c34)CC2)CC1` [compound 305, trans-4-({[trans-4-(7H-pyrrolo[3,2-e][1,2,3]triazolo[1,5-c]pyrimidin-1-yl)cyclohexyl]methyl}amino)cyclohexanol], the IC50 at JAK1 is 0.046 µM; at JAK2 it was 0.29 µM; against JAK3 (ATP 100 μM), above 1 µM; against Tyk2, above 1 µM.

Regarding `Fc1cc(C(F)(F)F)ccc1CN1CCC(c2nnn3cnc4[nH]ccc4c23)CC1` [compound 157], the IC50 turned out to be 0.002 µM against JAK1 (Table^a 154); 0.02 µM against JAK2 (Table^a 154); 0.24 µM against JAK3 (ATP 100 μM, Table^a 154); 0.31 µM at Tyk2 (Table^a 154).

Turning to `c1cc2c(ncn3nnc([C@H]4CC[C@@H](CNC5CC5)CC4)c23)[nH]1` [compound 406, N-{[cis-4-(7H-pyrrolo[3,2-e][1,2,3]triazolo[1,5-c]pyrimidin-1-yl)cyclohexyl]methyl}cyclopropanamine], the IC50 against JAK1 is 0.083 µM; against JAK2, 0.56 µM; against JAK3 (ATP 100 μM), above 1 µM; against Tyk2 it was 0.94 µM.

As to `Clc1ccc(CNC[C@H]2CC[C@H](c3nnn4cnc5[nH]ccc5c34)CC2)cc1` [compound 177, 1-[trans-4-(7H-pyrrolo[3,2-e][1,2,3]triazolo[1,5-c]pyrimidin-1-yl)cyclohexyl]-N-(4-chlorobenzyl)methanamine], the IC50 on JAK1 (Table^a 154) was found to be 0.0029 µM; against JAK2 (Table^a 154) it was 0.031 µM; against JAK3 (ATP 100 μM, Table^a 154) it was 0.2 µM; on Tyk2 (Table^a 154), 0.0028 µM.

As to `OCCN(C[C@H]1CC[C@H](c2nnn3cnc4[nH]ccc4c23)CC1)C1CCCCC1` [compound 306, 2-({[trans-4-(7H-pyrrolo[3,2-e][1,2,3]triazolo[1,5-c]pyrimidin-1-yl)cyclohexyl]methyl}(cyclohexyl)amino)ethanol], the IC50 is 0.015 µM against JAK1, 0.054 µM at JAK2, above 1 µM against JAK3 (ATP 100 μM) and 0.62 µM against Tyk2.

Turning to `CN(C)C1CN(C[C@H]2CC[C@H](c3nnn4cnc5[nH]ccc5c34)CC2)C1` [compound 423, 1-{[trans-4-(7H-pyrrolo[3,2-e][1,2,3]triazolo[1,5-c]pyrimidin-1-yl)cyclohexyl]methyl}-N,N-dimethylazetidin-3-amine], the 50% inhibitory concentration (IC50) was 0.077 µM on JAK1, 0.72 µM against JAK2, above 1 µM against JAK3 (ATP 100 μM) and above 1 µM against Tyk2.

For `FC(F)(F)C1CCN(C[C@H]2CC[C@H](c3nnn4cnc5[nH]ccc5c34)CC2)CC1` [compound 258, 1-(trans-4-{[4-(trifluoromethyl)piperidin-1-yl]methyl}cyclohexyl)-7H-pyrrolo[3,2-e][1,2,3]triazolo[1,5-c]pyrimidine], the IC50 on JAK1 is 0.012 µM; against JAK2 it was 0.081 µM; on JAK3 (ATP 100 μM), above 1 µM; against Tyk2, 0.74 µM.

As to `CC(C)(C)OC(=O)N[C@H]1CCN(C[C@H]2CC[C@H](c3nnn4cnc5[nH]ccc5c34)CC2)C1` [compound 307, tert-butyl ((S)-1-{[trans-4-(7H-pyrrolo[3,2-e][1,2,3]triazolo[1,5-c]pyrimidin-1-yl)cyclohexyl]methyl}pyrrolidin-3-yl)carbamate], the IC50 on JAK1 was 0.0066 µM; against JAK2, 0.26 µM; against JAK3 (ATP 100 μM) it was above 1 µM; against Tyk2 it was above 1 µM.

Turning to `COc1ccc(C(O)(CN[C@H]2CC[C@H](c3nnn4cnc5[nH]ccc5c34)CC2)C(F)(F)F)cc1` (stereo partly drawn) [388b, 3-{[trans-4-(7H-pyrrolo[3,2-e][1,2,3]triazolo[1,5-c]pyrimidin-1-yl)cyclohexyl]amino}-1,1,1-trifluoro-2-(4-methoxyphenyl)propan-2-ol], the IC50 was 0.0012 µM at JAK1, 0.025 µM against JAK2, 0.26 µM against JAK3 (ATP 100 μM) and 0.21 µM against Tyk2.

In the case of `N#CCNC(=O)[C@H]1CC[C@H](c2nnn3cnc4[nH]ccc4c23)CC1` [compound 355, trans-N-(cyanomethyl)-4-(7H-pyrrolo[3,2-e][1,2,3]triazolo[1,5-c]pyrimidin-1-yl)cyclohexanecarboxamide], the IC50 was 0.0042 µM against JAK1, 0.033 µM against JAK2, above 1 µM at JAK3 (ATP 100 μM) and 0.15 µM against Tyk2.

In the case of `CCN(C)C1CN(C[C@H]2CC[C@H](c3nnn4cnc5[nH]ccc5c34)CC2)C1` [compound 424, 1-{[trans-4-(7H-pyrrolo[3,2-e][1,2,3]triazolo[1,5-c]pyrimidin-1-yl)cyclohexyl]methyl}-N-ethyl-N-methylazetidin-3-amine], the IC50 against JAK1 is 0.044 µM; against JAK2, 0.48 µM; against JAK3 (ATP 100 μM) it was above 1 µM; against Tyk2, above 1 µM.

For `O=C(N[C@H]1CCN(C[C@H]2CC[C@H](c3nnn4cnc5[nH]ccc5c34)CC2)C1)C(F)(F)F` [compound 321, N-((S)-1-{[trans-4-(7H-pyrrolo[3,2-e][1,2,3]triazolo[1,5-c]pyrimidin-1-yl)cyclohexyl]methyl}pyrrolidin-3-yl)-2,2,2-trifluoroacetamide], the IC50 against JAK1 is 0.024 µM; on JAK2, 0.21 µM; at JAK3 (ATP 100 μM) it was above 1 µM; against Tyk2, above 1 µM.

For the molecule `N#CCCN[C@H]1CC[C@H](c2nnn3cnc4[nH]ccc4c23)CC1` [394b, 3-{[trans-4-(7H-pyrrolo[3,2-e][1,2,3]triazolo[1,5-c]pyrimidin-1-yl)cyclohexyl]amino}propanenitrile], the IC50 was 0.015 µM against JAK1, 0.09 µM against JAK2, above 1 µM on JAK3 (ATP 100 μM) and above 1 µM against Tyk2.

Take `CNC[C@H]1CC[C@H](c2nnn3cnc4[nH]ccc4c23)CC1` [compound 329, 1-[trans-4-(7H-pyrrolo[3,2-e][1,2,3]triazolo[1,5-c]pyrimidin-1-yl)cyclohexyl]-N-methylmethanamine]: the IC50 against JAK1 is 0.0048 µM; on JAK2 it was 0.029 µM; against JAK3 (ATP 100 μM), 0.8 µM; against Tyk2, 0.21 µM.

As for `Cc1ccc(CNC[C@H]2CC[C@H](c3nnn4cnc5[nH]ccc5c34)CC2)s1` [compound 106], the IC50 against JAK1 (Table^a 154) came to 0.0019 µM; against JAK2 (Table^a 154), 0.041 µM; against JAK3, 0.28 µM; against Tyk2 (Table^a 154), 0.0036 µM.
